Laboratory results taken from US4795639A, “Potentiating formulations” (priority 1971, dated 1989).
“And” between values parts separate entries of the source, which are not always exact repeats. Equal values may be shown once.

Experiments:
[1] = system: Escherichia coli CN 314; test: testing discs on standard nutrient medium; assay type: cell-based; conditions: Escherichia coli, CN314; read-out: Size of zone in cm (×6 magnification)
[2] = system: E. tenella; test: coccidiosis screening test in chicks, E. tenella; assay type: in vivo, Eimeria tenella
Experimental: "Screening tests" were performed to establish the effectiveness of the compounds of formula (I) both alone and in combination with a competitor and or an inhibitor and to determine the most useful levels of relative concentrations of each component in combatting or suppressing coccidiosis.
Groups of Ranger cockerels, housed in small, heated cages with wire floors situated in enironmentally controlled isolation rooms, were infected orally with sporulated oocysts of the Eimeria spp such as E. tenella or E. acervulina. The appropriate test compound(s), (DMHP, sulphaquinoxaline (SQX) or diaveridine (DV) or any combination of these) were incorporated in a small quantity of specially formulated laboratory ration deficient in Vitamin K (`L.D.4 mash`), as a 1/10 pre-mix, which was then mixed into the diet on a horizontal roller drum mixed and administered to groups of chicks one day prior to infection, leaving some groups as untreated controls. Administration was continued for several days, for example about 8 or 9 days.
The amount of damage, marked by lesions in the caecal walls was investigated in those chicks that died during the course of the experiment, and in those sacrificed on the final day of administration, and compared with the untreated controls as a basis for the determination of therapeutic activity. In addition the mortality rate and the percentage weight gains in the various groups were assessed. A marked or definite effect of the administered drug could be recognised even when the mortality rates were similar or identical, since the increase in the weight gains and the reduction of the extension of lesions indicated by the lesion score, is characteristic of an improvement. […]
4:1 sulphaquinoxaline/diaveridine mixtures at levels of 80/20, 60/15, 40/10 and 20/5 p.p.m. were administered alone and in combination with a wide range of low concentrations of DMHP to the birds.
The results of these screening tests are set forth in Table 4 showing the concentration of the various component compounds in parts per million of the bird's diet, the mortality from coccidiosis, the percentage weight gain, the lesion score the oocyst output, and the activity. The caecal lesion index is calculated using a score system where: […]
In addition a score of 4 is assigned to any bird that dies of coccidiosis during the experiment. [formula] In the activity column, +++, ++, +, ± and - relate respectively to very high, high, slight, doubtful and nil activity of the test drug against the Eimeria infection.

[3] = system: Pseudomonas aeruginosa CN 200; test: testing discs on standard nutrient medium; assay type: cell-based; conditions: Pseudomonas aeruginosa, CN200; read-out: Size of zone in cm (×6 magnification)
[4] = biological target: T1, hydroxymethyldihydropteridine pyrophosphokinase (HMPPS) (Escherichia coli, UniProt P26281); test: HMPPS assay: transfer of terminal phosphate of ATP-γ-P^32 to Pt; assay type: biochemical, E. coli
T1 construct: obtained from an extract of E. coli; endogenous in cells; host or cells: E. coli extract; HMPPS separated from synthetase on Sephadex G-100 (method of Richey and Brown 1969)
T1 sequence (P26281 whole entry): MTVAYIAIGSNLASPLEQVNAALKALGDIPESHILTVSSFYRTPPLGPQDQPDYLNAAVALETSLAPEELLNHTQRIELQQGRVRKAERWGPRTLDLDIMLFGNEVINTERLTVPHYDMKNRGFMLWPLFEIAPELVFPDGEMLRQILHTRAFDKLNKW
From the text: (a) An assay for HMPPS was developed in which the transfer of the terminal phosphate of ATP-γ-P^32 to Pt could be monitored and correlated with the amount of inhibition of HMPPS by the compound under test.
The compound under test was incorporated into various formulations comprising metabolites and enzymes contained in test tubes, as indicated in TABLE 1.
II--a source of HMMP S, obtained from an extract of E. coli and separated from `synthetase` on Sephadex G-100, according to the method of Richey and Brown in J. Biol. Chem. 244, 1582-1592 (1969)
Control tubes 10 to 12 include a source of both HMPPS and synthetase, unlabelled ATP, 0.1M MgCl2.6H2 O and labelled pAB.
Tubes 1 to 9 containing the amounts of components shown in the Table, were filled up to 200 μl with distilled water, incubated for 60 minutes at 37° C. and then chilled on ice. Dextrose (20 μl containing 72.1 mg/ml) and hexokinase (5 μl containing 2000 units/ml) were added to the solution, which was then allowed to stand at room temperature for 15 minutes. `Darco-G-60` (Registered Trade Mark) (10 mg) was added to each tube and the contents mixed periodically for 10 minutes. The charcoal was removed through a "Millipore AP 250 2200" (Registered Trade Mark) filter and the filter was washed with three 10 ml portions of cold water. The Charcoal and the filter were then radioactively counted.
The radioactive count from the contents of tubes 2 and 3 was taken as the maximum count, since these tubes contained no test compound and thus gave 0% enzyme inhibition. The percentage inhibition produced by the contents of the remaining tubes could then be calculated by relating their radioactive count to the maximum, as determined above.

[5] = biological target: T2, dihydropteroate synthetase (Escherichia coli, UniProt P0AC13); test: `synthetase` assay: formation of dihydropteroate-C^14; assay type: biochemical, E. coli
T2 construct: incubating an extract of E. coli with pAB-7-C^14; endogenous in cells; host or cells: E. coli extract (synthetase separated from HMPPS on Sephadex G-100, as concluded from part (a))
T2 sequence (P0AC13 whole entry): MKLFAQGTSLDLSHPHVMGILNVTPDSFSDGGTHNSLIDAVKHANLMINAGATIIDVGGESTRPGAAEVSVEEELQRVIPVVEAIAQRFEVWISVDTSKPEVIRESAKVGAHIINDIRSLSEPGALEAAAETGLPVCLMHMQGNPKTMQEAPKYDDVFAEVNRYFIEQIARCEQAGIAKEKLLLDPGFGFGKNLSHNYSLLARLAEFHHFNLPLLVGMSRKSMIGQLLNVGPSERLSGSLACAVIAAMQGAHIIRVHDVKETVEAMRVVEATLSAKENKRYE
Experimental: (b) The activity of the test compound against `synthetase` was determined as follows, by monitoring the formulation of dihydropteroate-C^14.
A pool of Pt was prepared from ATP neutralised (50 μl, 0.1M), MgCl2.6H2 O (50 μl, 0.1M), dithiothreitol (100 μl, 0.1M), tris buffer (100 μl, 0.4M, pH 8.3), HMPt (25 μl, 876 μM) and 170 μl of a solution containing HMPPS. The mixture was incubated for 60 minutes at 37° C., chilled briefly on ice and then dextrose (100 μl containing 72.1 mg/ml) and hexokinase (20 μl containing 2000 units/ml) were added at room temperature to the solution, which was allowed to stand at this temperature for 15 minutes.
A solution of MgCl2.6H2 O (10 μl, 0.1M), pAB-C^14 (10 μl, 0.4 mM), dithiothreitol (20 μl, 0.1M) and tris buffer (20 μl, 0.4M, pH8.3) was made in each of five test tubes and then 80 μl of the contents of the pool added to each, together with synthetase and/or test compound as indicated in TABLE 2. The solution was then made up to 200 μl with distilled water.
All seven tubes were then incubated for 30 minutes at 37° C., chilled on ice and then these, together with control tubes 10 to 12 from part (a), were chromatographically analysed as follows:
100 μl of the contents of each of the tubes was spotted onto Whatman No. 3 MM chromatography paper (2×20 cm) at the `origin`, the run descending in a Sorenson buffer of potassium and sodium phosphates (0.1M, pH 7.0) for 10 to 15 cm.

[6] = final concn. 0.93 × 10^-4 M, tubes 8, 9

With `CC1(C)Nc2nc(N)nc(O)c2N=C1CO` [DMHP, 2-amino-4-hydroxy-6-hydroxymethyl-7,7-dimethyl-7,8-dihydropteridine] the zone of inhibition at 100 µg/disc [1] was 0 mm, the “Mortality from Coccidiosis” value ([2]; Expt. 1, 200,000 oocysts, SQX/DV/DMHP p.p.m in diet: -/-/250, -/-/90, -/-/30, -/-/10, 30/30/-, 30/30/250, 30/30/90, 30/30/30, 30/30/10) was 1/5 and 2/5 and 3/5 and the “Mortality from Coccidiosis” value ([2]; Expt. 4, 100,000 oocysts, p.p.m SQX/DV/DMHP: b374 10/-/-, b375 -/20/-, b376 -/-/10, b377 10/-/10, b378 -/20/10, b379 10/20/-, b381 10/20/10, b382 20/-/-, b383 -/40/-, b384 -/-/20, b385 20/-/20, b386 -/40/20, b387 20/40/-, b389 20/40/20) was 8/10 and 6/10. The “Mortality from Coccidiossis” value ([2]; Expt. 5, 100,000 oocysts, SQX/DV p.p.m with DMHP 40, 20, 10, 5 p.p.m: b409-412 20/20, b413-416 26.7/13.3, b417-420 30/10, b421-424 32/8, b425-428 33.4/6.6, no DMHP: b429 20/20, b430 26.7/13.3, b431 30/10, b432 32/8, b433 33.4/6.6, DMHP alone b434-437 40, 20, 10, 5) was 19/20 and 18/20 and 20/20, the “activity alone against infection with E. tenella” value ([2]; all levels of concentration tested) was “inactive” and the “potentiation of the activity of diaveridine/sulphaquinoxaline mixtures” value ([2]; in many cases by as much as) was 3 to 4 fold. For the same molecule, the zone of inhibition at 100 µg/disc [3] was 220 mm, the IC50 [4] was 2 to 4 µM and the “% Inhibn.” value [4, 6] was 95%. The inhibition at 93 µM [4, 6] was 98%, the “% Inhibn.” value ([4]; final concn. 1 × 10^-5 M, tubes 6, 7) was 87% and 55% and the inhibition at 2.5e-10 µM ([4]; read-out: % Inhibn., test compound final concn., tubes 4, 5) was 44%. The “% Inhibn.” value ([4]; test compound final concn., tubes 4, 5) was 33%, the inhibition at 10 µM ([5]; final concentration 1 × 10^-5 M) was 0% and the inhibition at 2.5 µM ([5]; final concentration 2.5 × 10^-6 M) was 5%. It also gave an inhibition at 87 µM ([5]; final concentration 8.7 × 10^-5 M) of 9%.
